Structures can show the parent of a compound that is named as a salt. Where two headings read alike, the source gives them in different places.
Assays:
[1] = biological target: PI3Kγ (p110γ) Recombinant Human Protein (Homo sapiens (Human), UniProt P48736); assay: PI3K-γ Scintillation Proximity Assay; type: biochemical; details: read-out: PI3Kγ IC50
Outline: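 Recombinant human p110γ assayed at room temperature in 20 mM MOPS pH 6.7, 10 mM MgCl2, 5 mM DTT, 0.03% CHAPS, 2% DMSO, with 20 μM PIP2 and 2 μM ATP plus [γ-33P]ATP. Product captured on WGA SPA beads overnight and counted; IC50 fitted from % of solvent-control activity versus log inhibitor concentration.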

[2] = test system: Phosphorylated Ribosomal Protein S6 (RPS6); assay: THP-1 RPS6 ELISA Assay; type: cell-based, Human; details: THP-1 cells, read-out: PI3Kγ_THP1_RPS6_ELISA IC50
Outline: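 Serum-starved THP-1 cells were preincubated with a concentration range of compound for 2 h at 37 °C, then stimulated with 10 nM MCP-1 for 15 min. Phospho-RPS6 in lysates was quantified by ELISA at 450 nm. IC50 came from percent inhibition versus log inhibitor concentration.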

[3] = biological target: PI3Kδ (p110δ/p85α) Recombinant Human Protein (Homo sapiens (Human), UniProt O00329); assay: PI3Kδ Scintillation Proximity Assay; type: biochemical
Outline: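 Recombinant human p110δ/p85α (3.4 nM) with 20 μM PIP2 and 2 μM ATP plus [γ-33P]ATP, in 20 mM MOPS pH 6.7, 10 mM MgCl2, 5 mM DTT, 0.03% CHAPS, 2% DMSO; 120 min at room temperature. Product captured on WGA SPA beads, scintillation counted; IC50 from percent-of-control curves.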

PI3Kδ (p110δ/p85α) Recombinant Human Protein, sequence (O00329 whole entry): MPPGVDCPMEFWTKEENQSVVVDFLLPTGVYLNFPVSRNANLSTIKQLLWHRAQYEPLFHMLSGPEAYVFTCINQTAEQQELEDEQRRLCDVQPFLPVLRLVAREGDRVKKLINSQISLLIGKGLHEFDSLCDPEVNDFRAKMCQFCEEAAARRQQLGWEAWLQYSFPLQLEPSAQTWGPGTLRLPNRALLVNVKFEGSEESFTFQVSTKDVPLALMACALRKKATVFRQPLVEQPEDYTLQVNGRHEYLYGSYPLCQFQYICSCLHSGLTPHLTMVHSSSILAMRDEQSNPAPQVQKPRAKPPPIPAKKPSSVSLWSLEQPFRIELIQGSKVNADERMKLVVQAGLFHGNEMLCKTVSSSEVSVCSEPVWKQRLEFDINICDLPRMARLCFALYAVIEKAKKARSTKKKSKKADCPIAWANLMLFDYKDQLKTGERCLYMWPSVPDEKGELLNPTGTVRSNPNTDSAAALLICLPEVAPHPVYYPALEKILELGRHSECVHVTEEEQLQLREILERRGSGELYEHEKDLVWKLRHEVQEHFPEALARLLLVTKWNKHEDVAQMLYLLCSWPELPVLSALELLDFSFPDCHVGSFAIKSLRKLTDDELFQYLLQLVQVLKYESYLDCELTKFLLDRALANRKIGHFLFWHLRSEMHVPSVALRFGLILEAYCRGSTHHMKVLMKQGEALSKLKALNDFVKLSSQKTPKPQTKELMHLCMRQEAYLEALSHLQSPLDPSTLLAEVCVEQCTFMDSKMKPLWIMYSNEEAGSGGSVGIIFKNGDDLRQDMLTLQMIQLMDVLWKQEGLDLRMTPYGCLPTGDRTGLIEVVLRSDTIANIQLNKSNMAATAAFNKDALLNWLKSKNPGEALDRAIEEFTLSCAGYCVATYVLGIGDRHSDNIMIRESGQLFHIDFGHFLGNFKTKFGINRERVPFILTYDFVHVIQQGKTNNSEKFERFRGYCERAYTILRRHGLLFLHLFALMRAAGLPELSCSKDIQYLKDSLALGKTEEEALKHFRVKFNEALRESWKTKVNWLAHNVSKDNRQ
PI3Kδ (p110δ/p85α) Recombinant Human Protein, sequence (P27986 whole entry partner): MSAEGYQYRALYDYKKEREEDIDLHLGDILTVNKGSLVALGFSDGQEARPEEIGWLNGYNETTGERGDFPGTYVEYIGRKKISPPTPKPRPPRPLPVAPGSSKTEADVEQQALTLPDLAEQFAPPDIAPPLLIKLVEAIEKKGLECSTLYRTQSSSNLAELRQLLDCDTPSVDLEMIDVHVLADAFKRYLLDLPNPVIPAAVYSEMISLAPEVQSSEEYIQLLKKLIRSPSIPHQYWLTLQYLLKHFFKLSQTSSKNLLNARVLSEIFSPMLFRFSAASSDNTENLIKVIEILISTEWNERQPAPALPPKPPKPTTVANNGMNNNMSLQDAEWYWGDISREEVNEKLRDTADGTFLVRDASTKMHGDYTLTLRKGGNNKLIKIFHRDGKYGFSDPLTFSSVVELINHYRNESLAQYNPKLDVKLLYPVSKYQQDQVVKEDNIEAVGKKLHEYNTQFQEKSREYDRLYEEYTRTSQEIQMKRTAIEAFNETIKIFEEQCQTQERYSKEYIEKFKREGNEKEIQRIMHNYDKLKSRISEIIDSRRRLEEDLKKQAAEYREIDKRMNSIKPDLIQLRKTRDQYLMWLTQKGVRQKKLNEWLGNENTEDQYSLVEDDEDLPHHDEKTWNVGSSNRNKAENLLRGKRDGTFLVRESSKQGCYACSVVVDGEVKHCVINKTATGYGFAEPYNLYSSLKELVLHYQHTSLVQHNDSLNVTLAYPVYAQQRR
PI3Kγ (p110γ) Recombinant Human Protein, sequence (P48736 whole entry): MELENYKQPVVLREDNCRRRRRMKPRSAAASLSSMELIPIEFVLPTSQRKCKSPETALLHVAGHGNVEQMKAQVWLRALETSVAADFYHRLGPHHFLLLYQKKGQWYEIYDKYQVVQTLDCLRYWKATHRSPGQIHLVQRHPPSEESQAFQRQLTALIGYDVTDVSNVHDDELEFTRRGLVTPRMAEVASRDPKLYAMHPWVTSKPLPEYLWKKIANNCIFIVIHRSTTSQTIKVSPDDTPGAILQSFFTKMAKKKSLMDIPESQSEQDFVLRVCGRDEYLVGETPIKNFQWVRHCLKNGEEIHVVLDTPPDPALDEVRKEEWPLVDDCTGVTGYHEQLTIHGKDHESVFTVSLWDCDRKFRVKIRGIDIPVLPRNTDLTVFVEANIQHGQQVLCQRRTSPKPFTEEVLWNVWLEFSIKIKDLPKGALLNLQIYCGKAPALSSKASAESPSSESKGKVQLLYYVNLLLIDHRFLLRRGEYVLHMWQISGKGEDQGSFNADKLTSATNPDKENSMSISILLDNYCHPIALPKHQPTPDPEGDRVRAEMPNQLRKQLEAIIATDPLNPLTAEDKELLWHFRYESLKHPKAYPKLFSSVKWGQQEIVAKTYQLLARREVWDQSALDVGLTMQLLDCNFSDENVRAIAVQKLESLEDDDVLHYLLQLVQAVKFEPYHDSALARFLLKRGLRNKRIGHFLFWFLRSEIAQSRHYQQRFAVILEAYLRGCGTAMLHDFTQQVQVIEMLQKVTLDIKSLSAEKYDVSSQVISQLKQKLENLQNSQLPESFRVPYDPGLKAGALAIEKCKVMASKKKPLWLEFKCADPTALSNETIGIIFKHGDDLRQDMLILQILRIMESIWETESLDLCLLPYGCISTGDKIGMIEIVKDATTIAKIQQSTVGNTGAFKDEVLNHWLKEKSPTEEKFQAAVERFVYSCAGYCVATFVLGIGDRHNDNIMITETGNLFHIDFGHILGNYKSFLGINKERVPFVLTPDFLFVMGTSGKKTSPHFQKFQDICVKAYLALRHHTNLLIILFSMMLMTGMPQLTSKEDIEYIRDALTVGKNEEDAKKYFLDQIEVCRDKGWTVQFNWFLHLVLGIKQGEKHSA

Row | IC50 [1] [nM] | IC50 [3] [nM] | IC50 ([2]; Homo sapiens) [nM] | Compound | IC50 [2] [nM]
1 | < 100 | 100 to 500 |  | Cc1cc(C)c(S(=O)(=O)N[C@H]2CC[C@](C)(O)CC2)cc1-c1cnc2c(N)nc(C(F)(F)F)nn12 [Example 413, 5-(4-Amino-2-(trifluoromethyl)imidazo[1,2-f][1,2,4]triazin-7-yl)-N-((1r,4r)-4-hydroxy-4-methylcyclohexyl)-2,4-dimethylbenzenesulfonamide trifluoroacetate salt] | < 100
2 | < 100 | 100 to 500 |  | Cc1c(F)cc(S(=O)(=O)NC23CCC(C#N)(C2)C3)cc1-c1cnc2c(N)nc(C(F)(F)F)nn12 [Example 416, 3-(4-Amino-2-(trifluoromethyl)imidazo[1,2-f][1,2,4]triazin-7-yl)-N-(4-cyanobicyclo[2.1.1]hexan-1-yl)-5-fluoro-4-methylbenzenesulfonamide trifluoroacetate salt] | < 100
3 | < 100 | 100 to 500 |  | N#CC12CCC(NS(=O)(=O)c3cc(-c4cnc5c(N)nc(C(F)(F)F)nn45)ccc3F)(C1)C2 [Example 417, 5-(4-Amino-2-(trifluoromethyl)imidazo[1,2-f][1,2,4]triazin-7-yl)-N-(4-cyanobicyclo[2.1.1]hexan-1-yl)-2-fluorobenzenesulfonamide trifluoroacetate salt] | 500 to 1000
4 | < 100 | 100 to 500 | 100 to 500 | Cc1ccc(S(=O)(=O)NC23COC(C)(C2)C3)cc1-c1cnc2c(N)ncnn12 [Example 424, 3-(4-Aminoimidazo[1,2-f][1,2,4]triazin-7-yl)-4-methyl-N-(1-methyl-2-oxabicyclo[2.1.1]hexan-4-yl)benzenesulfonamide trifluoroacetate salt] | 
5 | < 100 | 100 to 500 | < 100 | Cc1ccc(S(=O)(=O)NC23COC(C)(C2)C3)cc1-c1cnc2c(N)nc(C(F)(F)F)cn12 [Example 425, 3-(8-Amino-6-(trifluoromethyl)imidazo[1,2-a]pyrazin-3-yl)-4-methyl-N-(1-methyl-2-oxabicyclo[2.1.1]hexan-4-yl)benzenesulfonamide trifluoroacetate salt] | 
6 | < 100 | 100 to 500 | 100 to 500 | [2H]C([2H])([2H])c1ccc(S(=O)(=O)NC23COC(C)(C2)C3)cc1-c1cnc2c(N)nc(C)nn12 [Example 426, 3-(4-Amino-2-methylimidazo[1,2-f][1,2,4]triazin-7-yl)-4-trideuteromethyl-N-(1-methyl-2-oxabicyclo[2.1.1]hexan-4-yl)benzenesulfonamide trifluoroacetate salt] | 
7 | < 100 | 100 to 500 | 100 to 500 | Cc1ccc(S(=O)(=O)NC23COC(CO)(C2)C3)cc1-c1cnc2c(N)nc(C(F)(F)F)nn12 [Example 427, 3-(4-Amino-2-(trifluoromethyl)imidazo[1,2-f][1,2,4]triazin-7-yl)-N-(1-(hydroxymethyl)-2-oxabicyclo[2.1.1]hexan-4-yl)-4-methylbenzenesulfonamide trifluoroacetate salt] | 
8 | < 100 | 100 to 500 | 100 to 500 | Cc1ccc(S(=O)(=O)NC23COC(CO)(C2)C3)cc1-c1cnc2c(N)nc(C(F)(F)F)cn12 [Example 428, 3-(8-amino-6-(trifluoromethyl)imidazo[1,2-a]pyrazin-3-yl)-N-(1-(hydroxymethyl)-2-oxabicyclo[2.1.1]hexan-4-yl)-4-methylbenzenesulfonamide trifluoroacetate salt] | 
9 | < 100 | 100 to 500 | 100 to 500 | Cc1ccc(S(=O)(=O)NC23COC(C#N)(C2)C3)cc1-c1cnc2c(N)nc(C(F)(F)F)cn12 [Example 429, 3-(8-Amino-6-(trifluoromethyl)imidazo[1,2-a]pyrazin-3-yl)-N-(1-cyano-2-oxabicyclo[2.1.1]hexan-4-yl)-4-methylbenzenesulfonamide trifluoroacetate salt] | 
10 | < 100 | 100 to 500 | 100 to 500 | Cc1ccc(S(=O)(=O)NC23CCC(CC#N)(CC2)C3)cc1-c1cnc2c(N)ncnn12 [Example 430, 3-(4-Aminoimidazo[1,2-f][1,2,4]triazin-7-yl)-N-((1s,4s)-4-(cyanomethyl)bicyclo[2.2.1]heptan-1-yl)-4-methylbenzenesulfonamide trifluoroacetate salt] | 
11 | < 100 | 100 to 500 | 100 to 500 | Cc1ccc(S(=O)(=O)NC23CCC(C(C)(C)O)(CC2)C3)cc1-c1cnc2c(N)ncnn12 [Example 431, 3-(4-Aminoimidazo[1,2-f][1,2,4]triazin-7-yl)-N-(4-(2-hydroxypropan-2-yl)bicyclo[2.2.1]heptan-1-yl)-4-methylbenzenesulfonamide trifluoroacetate salt] | 
12 | < 100 | 100 to 500 | 100 to 500 | Cc1ccc(S(=O)(=O)NC23CCC(CO)(CC2)OC3)cc1-c1cnc2c(N)ncnn12 [Example 433, 3-(4-Aminoimidazo[1,2-f][1,2,4]triazin-7-yl)-N-(1-(hydroxymethyl)-2-oxabicyclo[2.2.2]octan-4-yl)-4-methylbenzenesulfonamide trifluoroacetate salt] | 
13 | < 100 | 100 to 500 | 100 to 500 | Cc1ccc(S(=O)(=O)NC23CCC(CN4CCOCC4)(CC2)OC3)cc1-c1cnc2c(N)ncnn12 [Example 434, 3-(4-Aminoimidazo[1,2-f][1,2,4]triazin-7-yl)-4-methyl-N-(1-(morpholinomethyl)-2-oxabicyclo[2.2.2]octan-4-yl)benzenesulfonamide trifluoroacetate salt] | 
14 | < 100 | 100 to 500 | 500 to 1000 | Cc1ccc(S(=O)(=O)NC23CCC(CN4CC(F)(F)C4)(CC2)OC3)cc1-c1cnc2c(N)ncnn12 [Example 435, 3-(4-Aminoimidazo[1,2-f][1,2,4]triazin-7-yl)-N-(1-((3,3-difluoroazetidin-1-yl)methyl)-2-oxabicyclo[2.2.2]octan-4-yl)-4-methylbenzenesulfonamide trifluoroacetate salt] | 
15 | < 100 | 100 to 500 | 100 to 500 | Cc1ccc(S(=O)(=O)NC23CCC(C(F)F)(CC2)OC3)cc1-c1cnc2c(N)ncnn12 [Example 436, 3-(4-aminoimidazo[1,2-f][1,2,4]triazin-7-yl)-N-(1-(difluoromethyl)-2-oxabicyclo[2.2.2]octan-4-yl)-4-methylbenzenesulfonamide trifluoroacetate salt] | 
16 | < 100 | 500 to 2000 | 500 to 1000 | Cc1ccc(S(=O)(=O)NC23CCC(c4nccn4C)(CC2)OC3)cc1-c1cnc2c(N)ncnn12 [Example 439, 3-(4-Aminoimidazo[1,2-f][1,2,4]triazin-7-yl)-4-methyl-N-(1-(1-methyl-1H-imidazol-2-yl)-2-oxabicyclo[2.2.2]octan-4-yl)benzenesulfonamide trifluoroacetate salt] | 

Row | Compound | IC50 [1] [nM] | IC50 [3] [nM] | IC50 ([2]; Homo sapiens) [nM] | IC50 [2] [nM]
17 | N#CC12CCC(NS(=O)(=O)c3cc(-c4cnc5c(N)nc(C(F)(F)F)nn45)ccc3Cl)(C1)C2 [Example 414, 5-(4-Amino-2-(trifluoromethyl)imidazo[1,2-f][1,2,4]triazin-7-yl)-2-chloro-N-(4-cyanobicyclo[2.1.1]hexan-1-yl)benzenesulfonamide] | < 100 | < 100 |  | 100 to 500
18 | N#CC12CCC(NS(=O)(=O)c3cccc(-c4cnc5c(N)nc(C(F)(F)F)nn45)c3)(C1)C2 [Example 415, 3-(4-Amino-2-(trifluoromethyl)imidazo[1,2-f][1,2,4]triazin-7-yl)-N-(4-cyanobicyclo[2.1.1]hexan-1-yl)benzenesulfonamide trifluoroacetate salt] | < 100 | 100 to 500 |  | < 100
19 | Nc1nc(C(F)(F)F)nn2c(-c3ccc(F)c(S(=O)(=O)NC45CCC(CO)(C4)C5)c3)cnc12 [Example 418, 5-(4-Amino-2-(trifluoromethyl)imidazo[1,2-f][1,2,4]triazin-7-yl)-2-fluoro-N-(4-(hydroxymethyl)bicyclo[2.1.1]hexan-1-yl)benzenesulfonamide] | < 100 | 100 to 500 |  | > 1000
20 | C[C@]1(O)CC[C@H](NS(=O)(=O)c2cc(-c3cnc4c(N)nc(-c5ccccc5F)cn34)ccc2F)CC1 [Example 421, 5-(8-amino-6-(2-fluorophenyl)imidazo[1,2-a]pyrazin-3-yl)-2-fluoro-N-((1r,4r)-4-hydroxy-4-methylcyclohexyl)benzenesulfonamide] | < 100 | < 100 |  | < 100
21 | C[C@]1(O)CC[C@H](NS(=O)(=O)c2cc(-c3cnc4c(N)nc(-c5ccncc5F)cn34)ccc2F)CC1 [Example 422, 5-(8-amino-6-(3-fluoropyridin-4-yl)imidazo[1,2-a]pyrazin-3-yl)-2-fluoro-N-((1r,4r)-4-hydroxy-4-methylcyclohexyl)benzenesulfonamide] | < 100 | < 100 |  | < 100
22 | C[C@]1(O)CC[C@H](NS(=O)(=O)c2cc(-c3cnc4c(N)nc(-c5ccc(CO)cc5F)cn34)ccc2F)CC1 [Example 423, 5-(8-amino-6-(2-fluoro-4-(hydroxymethyl)phenyl)imidazo[1,2-a]pyrazin-3-yl)-2-fluoro-N-((1r,4r)-4-hydroxy-4-methylcyclohexyl)benzenesulfonamide] | < 100 | < 100 |  | < 100

Source: patent US10479795B2 (Incyte Corporation, priority 2016, dated 2019)
